According to EP2125859B1, “ESTRATRIENE DERIVATIVES AND THEIR USES AS 17BETA-HYDROXYSTEROID DEHYDROGENASE INHIBITORS” (Abbott Products GmbH, priority 2006, dated 2008):

Assays:
[1] = target: T1, recombinant human 17β-HSD1 (Homo sapiens, UniProt P14061); test: Inhibition of recombinant human 17β-HSD1 (HPLC assay, conversion of 3H-estrone to estradiol); assay type: biochemical; conditions: 30 nM 3H-estrone, 1 mM NADPH, 30 min at RT; for inhibition at 0.1 µM / inhibition at 1 µM: 0.5 h, read-out: inhibition of rec. 17β-HSD1
T1 construct: made in house; host or cells: Sf9 insect cells (baculovirus, Bac to Bac Expression System)
T1 sequence (P14061 1-328): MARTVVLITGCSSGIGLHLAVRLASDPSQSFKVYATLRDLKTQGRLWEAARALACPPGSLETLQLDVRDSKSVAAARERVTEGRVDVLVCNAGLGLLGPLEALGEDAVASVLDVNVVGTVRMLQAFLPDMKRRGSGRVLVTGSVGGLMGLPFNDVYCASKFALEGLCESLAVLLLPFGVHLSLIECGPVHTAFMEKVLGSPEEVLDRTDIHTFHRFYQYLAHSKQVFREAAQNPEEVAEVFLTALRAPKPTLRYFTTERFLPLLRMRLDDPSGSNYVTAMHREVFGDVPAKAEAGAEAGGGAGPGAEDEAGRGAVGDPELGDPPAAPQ
Description: Inhibition of the 17β-hydroxysteroid dehydrogenase type 1 enzyme 17β-HSD1 purification: Recombinant baculovirus was generated by the "Bac to Bac Expression System" (Invitrogen). Recombinant bacmid was transfected to Sf9 insect cells using "Cellfectin Reagent" (Invitrogen). 60h later cells were harvested; the microsomal fraction was isolated as described by Puranen et al. (1994). Aliquots were stored frozen until determination of enzymatic activity.
Assay - Inhibition of recombinant human 17β-HSD1: Recombinant protein (0.1 µg/ml) was incubated in 20 mM KH2PO4 pH 7.4 with 30 nM 3H-estrone and 1 mM NADPH for 30 min at RT, in the presence of potential inhibitors at concentrations of 1 µM or 0.1 µM. Inhibitor stock solutions were prepared in DMSO. Final concentration of DMSO was adjusted to 1 % in all samples. The enzyme reaction was stopped by addition of 10 % trichloroacetic acid (final concentration). Samples were centrifuged in a microtiter plate at 4000 rpm for 10 min. Supernatants were applied to reverse phase HPLC on a Waters Symmetry C18 column, equipped with a Waters Sentry Guard column. Isocratic HPLC runs were performed at RT at a flow rate of 1 ml/min of acetonitrile:water 48:52 as running solvent. Radioactivity was monitored in the eluate by a Packard Flow Scintillation Analyzer. Total radioactivity for estrone and estradiol were determined in each sample and percent conversion of estrone to estradiol was calculated according to the following formula: [formula] [formula]
The values "% inhibition" were determined for exemplified compounds, and the results are summarized in table 4 (for 17β-HSD1). table 4: HSD 1 inhibition values in % of selected compounds of formula I

17β-HSD3 = target: T2, 17β-HSD3 (Homo sapiens, UniProt P37058); test: Inhibition of 17β-HSD3 in MCF-7 cell lines stably expressing the enzyme (HPLC, tritium labeled androstenedione); assay type: cell-based; conditions: MCF7, MCF-7 cells expressing 17β-HSD3, androstenedione 2 nM
T2 construct: expressed in transfected cells; host or cells: MCF-7 cells stably expressing 17β-HSD3
T2 sequence (P37058 1-310): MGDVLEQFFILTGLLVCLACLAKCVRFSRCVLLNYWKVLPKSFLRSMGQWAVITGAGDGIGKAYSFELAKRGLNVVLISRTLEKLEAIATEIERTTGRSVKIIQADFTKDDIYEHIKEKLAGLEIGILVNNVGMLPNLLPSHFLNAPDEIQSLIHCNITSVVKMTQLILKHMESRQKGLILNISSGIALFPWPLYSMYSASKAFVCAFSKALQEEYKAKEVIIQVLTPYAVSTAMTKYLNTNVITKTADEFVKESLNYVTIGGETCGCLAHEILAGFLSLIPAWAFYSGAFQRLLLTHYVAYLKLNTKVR
Description: The compounds were screened in respect of 17β-HSD3 enzyme activity in vitro on established MCF-7 cell lines, each stably expressing the 17β-HSD3 enzyme. The interconversion of substrate by 17β-HSD3 and the 17β-HSD3 inhibiting activity of chemical compounds in these cell lines were detected by HPLC system.
Varying amounts of the test compounds were incubated in the growth medium of the 17β-HSD3 expressing cells together tritium labeled androstenedione (2 nM). The medium samples were removed after exact incubation time and the reaction is stopped by trichloroacetic acid (TCA). The samples were analyzed by HPLC-coupled flow scintillation analysis.
Conversion: The 17β-HSD3 inhibiting activity of an individual test compound was calculated by comparing the conversion of a control sample without any test compound (referred to as "Negative Control") to the (reduced) conversion of the test sample containing the particular compound to be tested (referred to as "Test Sample"). [formula]
Two concentrations of each compound were used. The number of the compound refers to the numbers indicated in the Experimental Section.
The values "% inhibition" were determined for exemplified compounds, and the results are summarized in table 5 (HSD 3). table 5: 17β-HSD3 inhibition values in % of selected compounds of formula I

Question: What does the source list for `CC(C)CCc1cn(CC[C@@H]2CC(=O)[C@@]3(C)CC[C@@H]4c5ccc(O)cc5CC[C@H]4[C@H]23)nn1` [Compound 4, 3-Hydroxy-15β-{2-[4-(3-methyl-butyl)-[1,2,3]triazol-1-yl]-ethyl}-estra-1,3,5(10)-trien-17-one]?
Answer: inhibition at 0.1 µM ([1]; 100 nM inhibitor): 92%; inhibition at 1 µM ([1]; 1 µM inhibitor): 96%; inhibition at 1 µM (17β-HSD3): 5%; inhibition at 10 µM (17β-HSD3): 40%

Question: Which results are given for `C[C@]12CC[C@@H]3c4ccc(O)cc4CC[C@H]3[C@@H]1[C@H](CCn1cc(CC3CCCCC3)nn1)CC2=O` [Compound 6, 3-Hydroxy-15β-[2-(4-cyclohexylmethyl-[1,2,3]triazol-1-yl)-ethyl]-estra-1,3,5(10)-trien-17-one]?
Answer: inhibition at 0.1 µM ([1]; 100 nM inhibitor): 92%; inhibition at 1 µM ([1]; 1 µM inhibitor): 94%; inhibition at 1 µM (17β-HSD3): 16%; inhibition at 10 µM (17β-HSD3): 50%

Question: Which inhibition at 0.1 µM ([1]; 100 nM inhibitor) does the source give for `C[C@]12CC[C@@H]3c4ccc(O)cc4CC[C@H]3[C@@H]1[C@H](CCn1cc(-c3ccccc3F)nn1)CC2=O` [Compound 7, 3-Hydroxy-15β-{2-[4-(2-fluoro-phenyl)-[1,2,3]triazol-1-yl]-ethyl}-estra-1,3,5(10)-trien-17-one] here?
Answer: 81%

Question: What about the inhibition at 1 µM ([1]; 1 µM inhibitor) of the same compound?
Answer: 94%

Question: What about the inhibition at 1 µM (17β-HSD3) of the same compound?
Answer: 12%

Question: What about the inhibition at 10 µM (17β-HSD3) of the same compound?
Answer: 36%

Question: Which results are given for `C[C@]12CC[C@@H]3c4ccc(O)cc4CC[C@H]3[C@@H]1[C@H](CCCn1cc(CCc3ccccc3)nn1)CC2=O` [Compound 8, 3-Hydroxy-15β-[3-(4-phenethyl-[1,2,3]triazol-1-yl)-propyl]-estra-1,3,5(10)-trien-17-one]?
Answer: inhibition at 0.1 µM ([1]; 100 nM inhibitor): 81%; inhibition at 1 µM ([1]; 1 µM inhibitor): 93%; inhibition at 1 µM (17β-HSD3): 6%; inhibition at 10 µM (17β-HSD3): 61%

Question: Which results are given for `CC(C)Cc1cn(CC[C@@H]2CC(=O)[C@@]3(C)CC[C@@H]4c5ccc(O)cc5CC[C@H]4[C@H]23)nn1` [Compound 12, 3-Hydroxy-15β-[2-(4-iso-butyl-[1,2,3]triazol-1-yl)-ethyl]-estra-1,3,5(10)-trien-17-one]?
Answer: inhibition at 0.1 µM ([1]; 100 nM inhibitor): 86%; inhibition at 1 µM ([1]; 1 µM inhibitor): 92%; inhibition at 10 µM (17β-HSD3): 37%

Question: Which inhibition at 0.1 µM ([1]; 100 nM inhibitor) does the source give for `CC(C)CCc1cn(CCC[C@@H]2CC(=O)[C@@]3(C)CC[C@@H]4c5ccc(O)cc5CC[C@H]4[C@H]23)nn1` [Compound 17, 3-Hydroxy-15β-{3-[4-(3-methyl-butyl)-[1,2,3]triazol-1-yl]-propyl}-estra-1,3,5(10)-trien-17-one] here?
Answer: 61%

Question: What about the inhibition at 1 µM ([1]; 1 µM inhibitor) of the same compound?
Answer: 88%

Question: What about the inhibition at 1 µM (17β-HSD3) of the same compound?
Answer: 3%

Question: What about the inhibition at 10 µM (17β-HSD3) of the same compound?
Answer: 50%

Question: How did the inhibition at 0.1 µM ([1]; 100 nM inhibitor) turn out when `C[C@]12CC[C@@H]3c4ccc(O)cc4CC[C@H]3[C@@H]1[C@H](CCn1cc(-c3ccccc3C(F)(F)F)nn1)CC2=O` [Compound 19, 3-Hydroxy-15β-{2-[4-(2-trifluoromethyl-phenyl)-[1,2,3]triazol-1-yl]-ethyl}-estra-1,3,5(10)-trien-17-one] was run?
Answer: 71%

Question: And the inhibition at 1 µM ([1]; 1 µM inhibitor)?
Answer: 87%

Question: And the inhibition at 1 µM (17β-HSD3)?
Answer: 11%

Question: What about the inhibition at 10 µM (17β-HSD3) of the same compound?
Answer: 52%

Question: What does the source list for `C[C@]12CC[C@@H]3c4ccc(O)cc4CC[C@H]3[C@@H]1[C@@H](CCCn1cc(-c3cccc(O)c3)nn1)CC2=O` [Compound 22, 3-Hydroxy-15-[3-(4-m-hydroxyphenyl-[1,2,3]triazol-1-yl)-propyl]-13-methyl-6,7,8,9,11,12,13,14,15,16-decahydro-cyclopenta[a]phenanthren-17-one]?
Answer: inhibition at 0.1 µM ([1]; 100 nM inhibitor): 48%; inhibition at 1 µM ([1]; 1 µM inhibitor): 86%; inhibition at 1 µM (17β-HSD3): 82%

Question: How did the inhibition at 0.1 µM ([1]; 100 nM inhibitor) turn out when `CC(C)Cc1cn(CCC[C@@H]2CC(=O)[C@@]3(C)CC[C@@H]4c5ccc(O)cc5CC[C@H]4[C@H]23)nn1` [Compound 24, 3-Hydroxy-15β-[3-(4-iso-butyl-[1,2,3]triazol-1-yl)-propyl]-estra-1,3,5(10)-trien-17-one] was run?
Answer: 52%

Question: And the inhibition at 1 µM ([1]; 1 µM inhibitor)?
Answer: 85%

Question: And the inhibition at 1 µM (17β-HSD3)?
Answer: 24%

Question: And the inhibition at 10 µM (17β-HSD3)?
Answer: 64%

Question: How did the inhibition at 0.1 µM ([1]; 100 nM inhibitor) turn out when `CC(C)Cc1cn(CCC[C@H]2CC(=O)[C@@]3(C)CC[C@@H]4c5ccc(O)cc5CC[C@H]4[C@H]23)nn1` [Compound 31, 3-Hydroxy-15-[3-(4-isobutyl-[1,2,3]triazol-1-yl)-propyl]-13-methyl-6,7,8,9,11,12,13,14,15,16-decahydro-cyclopenta[a]phenanthren-17-one] was run?
Answer: 32%

Question: What about the inhibition at 1 µM ([1]; 1 µM inhibitor) of the same compound?
Answer: 82%

Question: `C[C@]12CC[C@@H]3c4ccc(O)cc4CC[C@H]3[C@@H]1[C@H](CCCn1cc(-c3ccc(OC(F)(F)F)cc3)nn1)CC2=O` [Compound 32, 3-Hydroxy-15β-{3-[4-(4-trifluoromethoxy-phenyl)-[1,2,3]triazol-1-yl]-propyl}-estra-1,3,5(10)-trien-17-one] was tested. Which inhibition at 0.1 µM ([1]; 100 nM inhibitor) did it give?
Answer: 67%

Question: And the inhibition at 1 µM ([1]; 1 µM inhibitor)?
Answer: 81%

Question: Which “inhibition of rec. 17β-HSD1” value ([1]; 100 nM inhibitor) does the source give for `COC(=O)c1ccc(-c2cn(CCC[C@@H]3CC(=O)[C@@]4(C)CC[C@@H]5c6ccc(OC)cc6CC[C@H]5[C@H]34)nn2)cc1` [Compound 89, 4-{1-[3-(3-Methoxy-15β-17-oxo-estra-1,3,5(10)-trien-15-yl)-propyl]-1H-[1,2,3]triazol-4-yl}-benzoic acid methyl ester] here?
Answer: 11%

Question: What about the “inhibition of rec. 17β-HSD1” value ([1]; 1 µM inhibitor) of the same compound?
Answer: 52%

Question: `CCCCn1cc(CCCC2CC(=O)[C@@]3(C)CC[C@@H]4c5ccc(O)cc5CC[C@H]4[C@H]23)nn1` (stereo partly shown) [Compound 300, 15-[3-(1-butyl-1H-1,2,3-triazol-4-yl)propyl]-3-hydroxyestra-1(10),2,4-trien-17-one] was tested. Which inhibition at 0.1 µM ([1]; 100 nM inhibitor) did it give?
Answer: 85%

Question: And the inhibition at 1 µM ([1]; 1 µM inhibitor)?
Answer: 88%

Question: And the inhibition at 1 µM (17β-HSD3)?
Answer: 29%

Question: What about the inhibition at 10 µM (17β-HSD3) of the same compound?
Answer: 61%

Question: Which results are given for `C[C@]12CC[C@@H]3c4ccc(O)cc4CC[C@H]3[C@@H]1[C@H](CCCc1cn(-c3ccc(F)cc3F)nn1)CC2=O` [Compound 301, 15β-{3-[1-(2,4-difluorophenyl)-1H-1,2,3-triazol-4-yl]propyl}-3-hydroxyestra-1(10),2,4-trien-17-one]?
Answer: inhibition at 0.1 µM ([1]; 100 nM inhibitor): 82%; inhibition at 1 µM ([1]; 1 µM inhibitor): 88%; inhibition at 1 µM (17β-HSD3): 24%; inhibition at 10 µM (17β-HSD3): 57%

Question: For `C[C@]12CC[C@@H]3c4ccc(O)cc4CC[C@H]3[C@@H]1[C@H](CCCc1cn(-c3ccc(F)cc3F)nn1)CC2(F)F` [Compound 302, 15-{3-[1-(2,4-difluorophenyl)-1H-1,2,3-triazol-4-yl]propyl}-17,17-difluoroestra-1(10),2,4-trien-3-ol], which inhibition at 0.1 µM ([1]; 100 nM inhibitor) is on record?
Answer: 88%

Question: And the inhibition at 1 µM ([1]; 1 µM inhibitor)?
Answer: 96%

Question: What about the inhibition at 1 µM (17β-HSD3) of the same compound?
Answer: 13%

Question: What about the inhibition at 10 µM (17β-HSD3) of the same compound?
Answer: 70%
